Measurements as given in PMC10180076, “Novel Biologically Active N-Substituted Benzimidazole Derived Schiff Bases: Design, Synthesis, and Biological Evaluation” (Molecules, 2023).
Values after ≈ are worked out from the molar mass of the structure shown. Like-named read-outs stand apart in the source and are kept apart here.

Key:
[1] = test system: S. aureus ATCC 29213; assay: Broth microdilution MIC, S. aureus; format: cell-based; conditions: Staphylococcus aureus, ATCC29213; read-out: MIC against S. aureus
Method: (§1) Selected bacterial strains were Gram-negative E. coli, K. pneumoniae, A. baumannii and P. aeruginosa and Gram-positive S. aureus, S. pneumoniae, and E. faecalis. The synthesized compounds were prepared as 10 mM DMSO solutions and tested in a final concentration range of 0.2–100 µM [39].
(§2) Broth microdilution testing was performed according to CLSI (Clinical Laboratory Standards Institute) guidelines. The MIC (minimal inhibitory concentration) value was defined as the last tested concentration of the compound at which there was no visible growth of bacteria. Inoculums for each microorganism were prepared using the direct colony suspension method, where broth solutions that achieved turbidity equivalent to 0.5 McFarland standard were additionally diluted 100× with Ca adjusted MH media (Becton Dickinson, Franklin Lakes, NJ, USA). All of the test plates were incubated for 16–24 h at 37 °C.
(§3) Methods for dilution of antimicrobial susceptibility tests for bacteria that grow aerobically followed M07, 11th edition, 2018, and Clinical and Laboratory Standards Institute (CLSI) guidelines. Performance standards for antimicrobial susceptibility testing followed the M100, 28th edition, 2018.

[2] = test system: E. faecalis ATCC 29212; assay: Broth microdilution MIC, E. faecalis; format: cell-based; conditions: Enterococcus faecalis, ATCC29212; read-out: MIC against E. faecalis
Method: as §1, §2, §3

[3] = test system: E. coli efflux del; assay: microbe, parasite or virus in culture; format: cell-based; conditions: for MIC E. coli efflux del: Table 2 prints no unit, μM for compounds, antibiotics tested at 0.125–64 µg/mL
Method: as §1, §2, §3

[4] = test system: K. pneumoniae ATCC 700603; assay: Broth microdilution MIC, K. pneumoniae; format: cell-based; conditions: Klebsiella pneumoniae, ATCC700603; read-out: MIC against K. pneumoniae
Method: as §1, §2, §3

[5] = test system: LN-229, glioblastoma; assay: Proliferation assay (MTS, 72 h), LN-229; format: cell-based, human; conditions: Homo sapiens, LN-229
From the text: (§4) Human cancer cells used in this manuscript, namely Capan-1, HCT-116, NCI-H460, LN-229, HL-60, K-562, and Z-138, were acquired from the American Type Culture Collection (ATCC, Manassas, VA, USA), while the DND-41 cell line was purchased from the Deutsche Sammlung von Mikroorganismen und Zellkulturen (DSMZ Leibniz-Institut, Braunschweig, Germany). Culture media were purchased from Gibco Life Technologies, Merelbeke, Belgium, and supplemented with 10% fetal bovine serum (HyClone, Cytiva, Marlborough, MA, USA). Vincristine and docetaxel, which were used as the reference inhibitors, were purchased from Selleckchem (Munich, Germany). Stock solutions were prepared in DMSO.
(§5) Adherent cell lines LN-229, HCT-116, and NCI-H460 and Capan-1 cells were seeded at a density between 500 and 1500 cells per well, in 384-well tissue culture plates (Greiner, Kremsmünster, Austria). After overnight incubation, the cells were treated with seven different concentrations of the test compounds, ranging from 100 to 0.006 µM.
(§6) Suspension cell lines HL-60, K-562, Z-138, and DND-41 were seeded at densities ranging from 2500 to 5500 cells per well in 384-well culture plates containing the test compounds at the same concentration points. The cells were incubated for 72 h with the compounds and were then analyzed using the CellTiter 96® AQueous One Solution Cell Proliferation Assay (MTS) reagent (Promega, Madison, WI, USA) according to the manufacturer’s instructions. […] The compounds were tested in two independent experiments.

[6] = test system: Capan-1, pancreatic adenocarcinoma; assay: Proliferation assay (MTS, 72 h), Capan-1; format: cell-based, human; conditions: Homo sapiens, CAPAN-1
From the text: as §4, §5, §6

[7] = test system: HCT-116, colorectal carcinoma; assay: Proliferation assay (MTS, 72 h), HCT-116; format: cell-based, human; conditions: Homo sapiens, HCT-116
From the text: as §4, §5, §6

[8] = test system: NCI-H460, lung carcinoma; assay: Proliferation assay (MTS, 72 h), NCI-H460; format: cell-based, human; conditions: Homo sapiens, NCI-H460
From the text: as §4, §5, §6

[9] = test system: DND-41, acute lymphoblastic leukemia; assay: Proliferation assay (MTS, 72 h), DND-41; format: cell-based, human; conditions: Homo sapiens, DND41
From the text: as §4, §5, §6

[10] = test system: HL-60, acute myeloid leukemia; assay: Proliferation assay (MTS, 72 h), HL-60; format: cell-based, human; conditions: Homo sapiens, HL-60
From the text: as §4, §5, §6

[11] = test system: K-562, chronic myeloid leukemia; assay: Proliferation assay (MTS, 72 h), K-562; format: cell-based, human; conditions: Homo sapiens, K562
From the text: as §4, §5, §6

[12] = test system: Z-138, non-Hodgkin lymphoma; assay: Proliferation assay (MTS, 72 h), Z-138; format: cell-based, human; conditions: Homo sapiens, Z-138
From the text: as §4, §5, §6

[13] = test system: human coronavirus HCoV-229E; assay: organism not typed; format: cell-based; conditions: HEL 299 cells, 100 CCID50, MTS; read-out: Antiviral Activity (EC50/μM) HCoV 229E HEL 299
[14] = test system: human coronavirus HCoV-OC43; assay: microbe, parasite or virus in culture; format: cell-based; conditions: Betacoronavirus 1, OC43; HEL 299 cells, 100 CCID50, MTS; read-out: Antiviral Activity (EC50/μM) HCoV OC43 HEL 299
[15] = test system: human coronavirus HCoV-NL63; assay: Antiviral CPE reduction assay, HCoV-NL63 in Huh-7; format: cell-based; conditions: Huh-7 cells, 100 CCID50, MTS
[16] = test system: influenza A/H1N1 (A/Ned/378/05); assay: Antiviral CPE reduction assay, influenza A/H1N1 in MDCK; format: cell-based; conditions: Influenza A virus, MDCK cells, 100 CCID50, MTS
[17] = test system: influenza A/H3N2 (A/HK/7/87); assay: Antiviral CPE reduction assay, influenza A/H3N2 in MDCK; format: cell-based; conditions: Influenza A virus, MDCK cells, 100 CCID50, MTS
[18] = test system: influenza B (B/Ned/537/05); assay: Antiviral CPE reduction assay, influenza B in MDCK; format: cell-based; conditions: Influenza B virus; MDCK cells, 100 CCID50, MTS
[19] = test system: respiratory syncytial virus A (Long); assay: Antiviral CPE reduction assay, RSV A in HEL 299; format: cell-based; conditions: human respiratory syncytial virus; HEL 299 cells, 100 CCID50, MTS
[20] = test system: herpes simplex virus-1 (HSV-1 KOS); assay: Antiviral CPE reduction assay, HSV-1 KOS in HEL 299; format: cell-based; conditions: Human alphaherpesvirus 1; HEL 299 cells, 100 CCID50, MTS
[21] = test system: yellow fever virus (YFV 17D); assay: microbe, parasite or virus in culture; format: cell-based; conditions: Huh-7, read-out: Antiviral Activity (EC50/μM) YFV 17D Huh-7
[22] = test system: Zika virus (Mr776); assay: Antiviral CPE reduction assay, Zika virus in Huh-7; format: cell-based; conditions: Huh-7 cells, 100 CCID50, MTS
[23] = test system: sindbis virus; assay: Antiviral CPE reduction assay, Sindbis virus in Huh-7; format: cell-based; conditions: Huh-7 cells, 100 CCID50, MTS
[24] = test system: human cancer cell lines; assay: Proliferation assay (MTS, 72 h), range over several cancer cell lines; format: cell-based
From the text: as §4
Adherent cell lines LN-229, HCT-116, and NCI-H460 and Capan-1 cells were seeded at a density between 500 and 1500 cells per well, in 384-well tissue culture plates (Greiner, Kremsmünster, Austria). […]
Suspension cell lines HL-60, K-562, Z-138, and DND-41 were seeded at densities ranging from 2500 to 5500 cells per well in 384-well culture plates containing the test compounds at the same concentration points. The cells were incubated for 72 h with the compounds and were then analyzed using the CellTiter 96® AQueous One Solution Cell Proliferation Assay (MTS) reagent (Promega, Madison, WI, USA) according to the manufacturer’s instructions. […]

[25] = in vitro; conditions: human
[26] = in vitro; conditions: human; remark: listed apart in the source
[27] = in vitro; conditions: dog

With CCCCCCn1c(N)nc2ccccc21 [Compound 23, 2-Amino-1-hexylbenzimidazole] the MIC [1] was 16 µM (≈ 3.48 µg/mL), the MIC [2] was 32 µM (≈ 6.95 µg/mL) and the MIC ([3]; Escherichia coli, read-out: MIC against E. coli efflux dell) was 32 µM (≈ 6.95 µg/mL). The “MIC E. coli efflux del” value [3] was 32, the MIC [4] was 32 µM (≈ 6.95 µg/mL) and the IC50 [5] was 45.2 µM. For the same compound, the IC50 [6] was 46.5 µM, the IC50 [7] was 57.4 µM and the IC50 [8] was 60.2 µM. For the same compound, the IC50 [9] was 47.7 µM, the IC50 [10] was 44.9 µM and the IC50 [11] was 46.7 µM. For the same compound, the IC50 [12] was 44.7 µM.

For CCN(CC)c1ccc(/C=N/c2nc3ccc(C#N)cc3n2CC(C)C)c(O)c1 [Compound 31, (E)-2-((4-(Diethylamino)-2-hydroxybenzylidene)amino)-1-isobutyl-1H-benzo[d]imidazole-6-carbonitrile], the EC50 [13] was > 100 µM, the EC50 [14] was > 100 µM and the EC50 [15] was 32 µM. For the same compound, the EC50 [16] was > 100 µM, the EC50 [17] was > 100 µM and the EC50 [18] was > 100 µM. For the same compound, the EC50 [19] was > 100 µM, the EC50 [20] was > 100 µM and the EC50 [21] was > 100 µM. The EC50 [22] was > 100 µM, the EC50 [23] was > 100 µM and the IC50 [5] was > 100 µM. The IC50 [6] was 32.8 µM, the IC50 [7] was > 100 µM and the IC50 [8] was > 100 µM. For the same compound, the IC50 [9] was 34.4 µM, the IC50 [10] was 47.6 µM and the IC50 [11] was > 100 µM. The IC50 [12] was > 100 µM, the IC50 ([24]; three cancer cell types, read-out: IC50, range over three cancer cell types) was 32.8 to 47.6 µM and the melting point was 205 to 208 °C. The CC50 [25] was > 100 µM, the CC50 [26] was 85.7 µM and the CC50 [27] was 1.3 µM.

For Cn1c(/N=C/c2ccc([N+](=O)[O-])cc2)nc2ccc(C#N)cc21 [Compound 37, (E)-1-Methyl-2-((4-nitrobenzylidene)amino)-1H-benzo[d]imidazole-6-carbonitrile], the MIC [1] was 32 µM (≈ 9.77 µg/mL), the “MIC E. coli efflux del” value [3] was >64 and the IC50 [5] was > 100 µM. For the same compound, the IC50 [6] was > 100 µM, the IC50 [7] was > 100 µM and the IC50 [8] was > 100 µM. The IC50 [9] was > 100 µM, the IC50 [10] was > 100 µM and the IC50 [11] was > 100 µM. The IC50 [12] was > 100 µM.

CCN(CC)c1ccc(/C=N/c2nc3ccccc3n2-c2ccccc2)c(O)c1 [Compound 40, (E)-5-(Diethylamino)-2-(((1-phenyl-1H-benzo[d]imidazol-2-yl)imino)methyl)phenol] gave an IC50 [5] of 21.5 µM, an IC50 [6] of 2.4 µM and an IC50 [7] of 9.6 µM. It also gave an IC50 [8] of 43.7 µM, an IC50 [9] of 2.2 µM and an IC50 [10] of 1.1 µM. The IC50 [11] was 12.9 µM, the IC50 [12] was 4.4 µM and the IC50 ([24]; Capan-1, DND-41, HL-60 and Z-138 cancer cell lines, read-out: IC50, range over several cancer cell lines) was 1.1 to 4.4 µM. The melting point was 197 to 201 °C.

For CCCCCCn1c(/N=C/c2ccc(N(C)C)cc2)nc2ccccc21 [Compound 42, (E)-4-(((1-Hexyl-1H-benzo[d]imidazol-2-yl)imino)methyl)-N,N-dimethylaniline], the EC50 [13] was 34.7 µM, the EC50 [14] was > 100 µM and the EC50 [15] was > 100 µM. The EC50 [16] was > 100 µM, the EC50 [17] was > 100 µM and the EC50 [18] was > 100 µM. The EC50 [19] was > 100 µM, the EC50 [20] was > 100 µM and the EC50 [21] was > 100 µM. For the same compound, the EC50 [22] was > 100 µM, the EC50 [23] was > 100 µM and the MIC [1] was 32 µM (≈ 11.2 µg/mL). For the same compound, the MIC [2] was 32 µM (≈ 11.2 µg/mL), the “MIC E. coli efflux del” value [3] was 64 and the IC50 [5] was > 100 µM. For the same compound, the IC50 [6] was > 100 µM, the IC50 [7] was > 100 µM and the IC50 [8] was 64.4 µM. The IC50 [9] was > 100 µM, the IC50 [10] was 73.2 µM and the IC50 [11] was 90.8 µM. For the same compound, the IC50 [12] was > 100 µM, the melting point was 231 to 234 °C and the CC50 [27] was 34.6 µM.
